Laboratory results reported in US20150018403A1, “FLUORENE-AMIDE COMPOUNDS AND PHARMACEUTICAL USE THEREOF” (JAPAN TOBACCO INC., priority 2013, published 2015).

Columns and labels:
human PDHK2 (hPDHK2) = biological target: T1, human PDHK2 (hPDHK2) (Homo sapiens, UniProt Q15119); experiment: Inhibitory action of PDHK2 activity in vitro (residual PDH activity after kinase reaction); type: biochemical
T1 construct: made in house; host or cells: Escherichia coli BL21(DE3), pET17b vector
Method: The inhibitory action of PDHK activity was assessed indirectly by measuring the residual PDH activity after kinase reaction in the presence of a test compound.
In the case of human PDHK2 (hPDHK2, Genbank Accession No. BC040478.1), modified hPDHK2 cDNA wherein FLAG-Tag sequence was added to the N terminus of hPDHK2 cDNA clone (pReceiver-M01/PDK2-GeneCopoeia) was prepared by PCR and cloned into a vector (pET17b-Novagen). The recombinant construct was transformed into Escherichia coli (DH5α-TOYOBO). The recombinant clones were identified, and plasmid DNA was isolated and subjected to the DNA sequence analysis. One clone which had the expected nucleic acid sequence was selected for expression work.
For expression of hPDHK2 activity, Escherichia coli strain BL21(DE3) cells (Novagen) were transformed with the pET17b vector containing modified hPDHK2 cDNA. The Escherichia coli were grown to an optical density 0.6 ([…]) at 30° C. Protein expression was induced by the addition of 500 μmol/L isopropyl-β-thiogalactopyranoside. The Escherichia coli were cultured at 30° C. for 5 hr and harvested by centrifugation. Resuspension of the Escherichia coli paste was disrupted by a microfluidizer. FLAG-Tagged protein was purified using FLAG affinity gel. The gel was washed with 20 mmol/L HEPES-NaOH, 500 mmol/L sodium chloride, 1% ethylene glycol, and 0.1% Pluronic F-68 (pH 8.0), and the binding protein was eluted with 20 mmol/L HEPES-NaOH, 100 μg/mL FLAG peptide, 500 mmol/L sodium chloride, 1% ethylene glycol, and 0.1% Pluronic F-68 (pH 8.0). The eluted fractions containing FLAG-Tagged protein were pooled, dialyzed against 20 mmol/L HEPES-NaOH, 150 mmol/L sodium chloride, 0.5 mmol/L EDTA, 1% ethylene glycol, and 0.1% Pluronic F-68 (pH 8.0), and preserved at −80° C.
0.05 U/mL PDH and 0.8 μg/mL hPDHK2 were mixed in a buffer (50 mmol/L 3-morpholinopropanesulfonic acid (pH 7.0), 20 mmol/L dipotassium hydrogen phosphate, 60 mmol/L potassium chloride, 2 mmol/L magnesium chloride, 0.4 mmol/L EDTA, and 0.2% Pluronic F-68, 2 mmol/L dithiothreitol), and the mixture was incubated at 4° C. overnight to obtain a PDH/hPDHK2 complex. The test compounds were diluted with DMSO. […] DMSO (1.5 μL) was added to control wells instead of the test compound. […] The mixture was incubated at room temperature for 90 min, and the residual PDH activity was measured. The absorbance at 340 nm before and after PDH reaction was measured using a microplate reader to detect NADH produced by the PDH reaction. The hPDHK2 inhibition rate (%) of the test compound was calculated from the formula [{(PDH activity of test compound−PDH activity of control)/PDH activity of blank−PDH activity of control)}×100].

[1] = biological target: T2, hERG current (hERG-transfected HEK293 cells) (Homo sapiens, UniProt Q12809); experiment: hERG whole cell patch clamp test; type: cell-based; details: whole cell patch clamp, hERG-transfected HEK293 cells
T2 construct: host or cells: HEK293
Method: (§1) Using human ether-a-go-go related gene (hERG)-transfected HEK293 cells (Cytomyx Limited), an influence on hERG current was examined according to the whole cell patch clamp technique. The hERG-transfected HEK293 cells were passaged using a CO2 incubator (BNA-111, TABAI ESPEC CORP.) under the set conditions of 37° C., 5% CO2, saturated humidity. Culture containers used were Collagen Type I Coated 75 cm^2 flask (4123-010, AGC TECHNO GLASS CO., Ltd.) and Collagen Type I Coated 35 mm culture dish (4000-010, AGC TECHNO GLASS CO., Ltd.). The culture medium used was E-MEM (Eagle Minimum Essential Medium (Earle's Salts, Nikken biomedical laboratory) added with 10% FCS (Fetal bovine serum, BioWest, L.L.C.) and 1% MEM Non-Essential Amino Acids Solution (NEAA, Invitrogen Corporation). Geneticin for the selection of hERG gene expressing cells was added thereto to a concentration of 400 μg/mL. As the cells for the measurement, 3×10^4 hERG-transfected HEK293 cells were plated on a 35 mm culture dish 4 to 7 days before measurement of the hERG current. The culture dish produced for the measurement contained the above-mentioned culture medium without geneticin (Invitrogen Corporation).
(§2) The highest evaluation concentration of each compound was determined from the highest concentration at which precipitation was not found in the standard extracellular fluid (NaCl: 140 mmol/L, KCl: 2.5 mmol/L, MgCl2: 2 mmol/L, CaCl2: 2 mmol/L, HEPES: 10 mmol/L, glucose: 10 mmol/L (adjusted to pH 7.4 with Tris-base)). As the application method, each solution to be applied was ejected from a Y-tube having a tip diameter of about 0.25 mm, which was adjacent (about 2 mm) to the cells, and applied to the cells. The ejection rate was about 0.4 mL/min.
(§3) The experiment was performed at room temperature under a phase contrast microscope. The 35 mm culture dish plated with the cells was set on a measurement apparatus, and the standard extracellular fluid was continuously applied to the cells from the Y-tube. A glass electrode for the measurement was filled with an intracellular fluid (Potassium Gluconate: 130 mmol/L, KCl: 20 mmol/L, MgCl2: 1 mmol/L, ATP-Mg: 5 mmol/L, EGTA: 3.5 mmol/L, HEPES: 10 mmol/L (adjusted to pH 7.2 with Tris-base)). A conventional whole cell patch clamp method was applied to the cells, and the maintenance electric potential was set to −80 mV. Under a fixed electric potential, the whole cell current was amplified by an amplifier for patch clamp (AXOPATCH-200B, Axon Instruments, Inc.), and the data was loaded into a computer (IMC-P642400, Intermedical Co., Ltd.) using a data acquisition analysis software (pCLAMP 9.2, Axon Instruments, Inc.).
(§4) The measurement of the hERG current was performed in the following two steps. In both cases, the hERG current was initiated by giving a command potential (maintenance electric potential −80 mV, prepulse+20 mV, 1.5 sec, test-pulse −50 mV, 1.5 sec).
(§5) Step (1): The above-mentioned command potential was given at 0.1 Hz for 2 min.
(§6) Step (2): The above-mentioned command potential was subjected to P/3 subtraction of pCLAMP 9.2 to remove leak current. This was repeated three times and an average thereof was taken as hERG current.
(§7) Subsequent to step (1), Step (2) was performed (about 3 min), and the maximum tail current obtained by applying a test-pulse to the hERG current obtained by the method of step (2) was taken as hERG current value. Hereafter, the operations of (1) and (2) were alternately repeated until completion of the experiment and the hERG current value was measured.
(§8) Stable hERG current value was recorded three times (about 10 min), and the standard extracellular fluid was instantaneously exchanged with each application fluid. The hERG current value was measured three times (about 10 min) in the same manner during perfusion of the application fluid, and the current value obtained by the 3rd measurement was taken as hERG current value after perfusion of the application fluid. […]

hERG = biological target: T3, hERG (Homo sapiens, UniProt Q12809); experiment: hERG whole cell patch clamp test; type: cell-based; details: human, HEK293 cells transfected with hERG, pH 7.4; concentration 10 μmol/L; read-out: hERG inhibition rate (%)
T3 construct: host or cells: HEK293
Method: as §1, §2, §3, §4, §5, §6, §7, §8

[2] = Metabolic stability test in rat liver microsome; type: in vitro ADME
[3] = Metabolic stability test in human liver microsome; type: in vitro ADME; details: 37° C., 5 μM
Method: Human liver microsome (manufactured by Xenotech, H0620, final concentration (after dilution), 0.2 mg protein/mL) was suspended in 100 mM potassium phosphate buffer (pH 7.4, containing β-nicotinamide adenine dinucleotide phosphate: 1.3 mM, D-glucose-6-phosphate: 3.3 mM, magnesium chloride: 3.3 mM, glucose-6-phosphate dehydrogenase: 0.45 U/mL), and further mixed with a test compound dissolved in MeCN/DMSO (95/5) (final concentration 5 μM). The mixture was incubated at 37° C. for 10 min and 60 min, acetonitrile containing formic acid (final concentration 0.1%) was added, and the mixture was centrifuged. The test compound (unmodified) in the supernatant was measured by high performance liquid chromatography/mass spectrometry (LC/MS) (manufactured by Waters, LC: Acquity UPLC, MS:SQ Detector or TQ Detector). The residual ratio (%) was calculated from the obtained measurement value.

T3 sequence (Q12809 whole entry): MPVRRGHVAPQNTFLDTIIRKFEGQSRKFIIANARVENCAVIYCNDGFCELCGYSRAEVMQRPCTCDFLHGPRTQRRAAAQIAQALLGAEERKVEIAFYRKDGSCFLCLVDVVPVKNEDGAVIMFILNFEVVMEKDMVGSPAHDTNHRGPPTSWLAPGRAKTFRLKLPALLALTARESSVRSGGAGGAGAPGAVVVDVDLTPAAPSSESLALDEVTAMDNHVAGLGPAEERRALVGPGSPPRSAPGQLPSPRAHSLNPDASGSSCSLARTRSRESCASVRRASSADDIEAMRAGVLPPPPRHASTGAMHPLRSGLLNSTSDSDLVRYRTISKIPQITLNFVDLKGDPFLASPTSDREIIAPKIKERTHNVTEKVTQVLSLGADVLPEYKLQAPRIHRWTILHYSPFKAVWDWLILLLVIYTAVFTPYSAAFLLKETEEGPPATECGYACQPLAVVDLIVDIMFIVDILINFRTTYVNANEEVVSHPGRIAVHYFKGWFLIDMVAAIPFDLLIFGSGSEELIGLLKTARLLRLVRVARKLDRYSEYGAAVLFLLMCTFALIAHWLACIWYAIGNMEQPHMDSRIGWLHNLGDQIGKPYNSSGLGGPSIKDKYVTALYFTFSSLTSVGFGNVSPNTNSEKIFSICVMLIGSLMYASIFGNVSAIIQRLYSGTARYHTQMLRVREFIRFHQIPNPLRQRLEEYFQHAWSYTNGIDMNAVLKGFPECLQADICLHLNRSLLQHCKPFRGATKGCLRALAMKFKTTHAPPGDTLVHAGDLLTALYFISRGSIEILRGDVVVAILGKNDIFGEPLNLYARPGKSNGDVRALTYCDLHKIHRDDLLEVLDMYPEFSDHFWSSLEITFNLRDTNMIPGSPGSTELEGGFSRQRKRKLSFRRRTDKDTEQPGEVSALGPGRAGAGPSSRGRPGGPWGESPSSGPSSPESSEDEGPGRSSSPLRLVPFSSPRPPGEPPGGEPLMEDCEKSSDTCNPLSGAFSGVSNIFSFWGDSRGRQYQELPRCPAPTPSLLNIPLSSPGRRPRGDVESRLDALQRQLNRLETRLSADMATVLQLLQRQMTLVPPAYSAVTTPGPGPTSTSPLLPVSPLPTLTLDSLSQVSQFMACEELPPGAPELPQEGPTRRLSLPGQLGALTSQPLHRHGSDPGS
T2 sequence (Q12809 whole entry): as above

## NC(=O)Cn1cc(-c2cc(OCCC34CC5CC(CC(O)(C5)C3)C4)cc3c2-c2ccccc2[C@]3(O)C(F)(F)F)cn1 [compound (A), 2-(4-{(9R)-9-Hydroxy-2-[2-(3-hydroxyadamantan-1-yl)ethoxy]-9-(trifluoromethyl)-9H-fluoren-4-yl}-1H-pyrazol-1-yl)acetamide, reference compound]
Human PDHK2 (hPDHK2)
  IC50: 5.1 nM
[1]
  IC50: > 10000 nM
hERG
  inhibition at 10 μmol/L: 11.8%
[2]; 10 min
  stability in liver microsome (residual ratio %): 24.8%
[2]; 60 min
  stability in liver microsome (residual ratio %): 0.0%
[3]; 10 min
  stability in liver microsome (residual ratio %): 34.8%
[3]; 60 min
  stability in liver microsome (residual ratio %): 0.0%
